≈ marks a conversion by molar mass, not a printed value. Where “and” joins values, the source holds several entries; their conditions need not be identical. Equal entries are not always repeated. Where two headings read alike, the source gives them in different places.
Tests used:
[1] = tested on: Streptococcus pyogenes C203; test: MIC, standard agar-dilution assay, Streptococcus pyogenes C203; type: cell-based
[2] = tested on: Staphylococcus aureus V41; test: MIC, standard agar-dilution assay, Staphylococcus aureus V41; type: cell-based; conditions: Staphylococcus aureus, V41
[3] = tested on: Pasteurella multocida; test: Subcutaneous treatment of Pasteurella multocida-infected chicks; type: in vivo, one-day-old chicks; conditions: 30 mg/kg × 2, 1 and 4 hours post-challenge
Description: Many of the C-20 modified derivatives of this invention have also shown in vivo antibacterial activity against infections induced by gram-negative bacteria. Tables XII and XIII summarize the results of tests in which illustrative compounds were evaluated against Pasteurella infection in one-day-old chicks. The compounds were administered parenterally or orally after challenge of the chicks with Pasteurella multocida (0.1 ml of a 10^-4 dilution of a twenty-hour tryptose broth culture of an avian P. multocida given subcutaneously). In these tests, unless indicated otherwise, all non-medicated infected chicks died within 24 hours of Pasteurella challenge. In the tests summarized in Table XII the compounds were administered by subcutaneous injection at a dosage of 30 mg/kg, 1 and 4 hours post-challenge of the chicks with P. multocida. In the test summarized in Table XIII the compounds were administered by gavage at 1 and 5 hours post-challenge of the chicks with P. multocida.

[4] = tested on: Streptococcus Group 9960; test: MIC, standard agar-dilution assay, Streptococcus Group 9960; type: cell-based; conditions: GROUP9960
[5] = tested on: Staphylococcus aureus X1.1; test: MIC, standard agar-dilution assay, Staphylococcus aureus X1.1; type: cell-based; conditions: Staphylococcus aureus, X1.1
[6] = tested on: Staphylococcus epidermidis EPI1; test: MIC, standard agar-dilution assay, Staphylococcus epidermidis EPI1; type: cell-based
[7] = tested on: Mycoplasma gallisepticum; test: MIC, broth-dilution microtiter test, Mycoplasma gallisepticum; type: cell-based; conditions: Mycoplasmoides gallisepticum; Mycoplasma gallisepticum; broth-dilution microtiter; read-out: MIC
Description: (§1) The MIC's in Table X were obtained using conventional broth-dilution microtiter tests.

[8] = tested on: Pasteurella multocida 17E; test: MIC, broth-dilution microtiter test, Pasteurella multocida 17E; type: cell-based; conditions: Pasteurella multocida 17E; bovine isolate; broth-dilution microtiter; read-out: MIC
Description: as §1

[9] = tested on: Streptococcus pyogenes C203; test: In vivo protection of mice experimentally infected with S. pyogenes C203; conditions: Streptococcus pyogenes, mice, doses given 1 and 4 hours post-infection
Description: The C-20 modified derivatives of this invention have shown in vivo antimicrobial activity against experimentally-induced infections in laboratory animals. When two doses of test compound were administered to mice experimentally infected with S. pyogenes C203, the activity observed was measured as an ED50 value [effective dose in mg/kg to protect 50% of the test animals: see Warren Wick, et al., J. Bacteriol. 81, 233-235 (1961)].

[10] = tested on: Staphylococcus aureus X400; test: MIC, standard agar-dilution assay, Staphylococcus aureus X400; type: cell-based; conditions: Staphylococcus aureus, X400
[11] = tested on: Mycoplasma hyopneumoniae; test: MIC, broth-dilution microtiter test, Mycoplasma hyopneumoniae; type: cell-based; conditions: Mesomycoplasma hyopneumoniae; Mycoplasma hyopneumoniae; broth-dilution microtiter; read-out: MIC
Description: as §1

[12] = tested on: Mycoplasma hyorhinis; test: MIC, broth-dilution microtiter test, Mycoplasma hyorhinis; type: cell-based; conditions: Mycoplasma
Description: as §1

[13] = tested on: Pasteurella multocida; test: Oral (gavage) treatment of Pasteurella multocida-infected chicks; type: in vivo, one-day-old chicks
Summary of the method: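 Dosing either by gavage at 1 and 5 h after infection, or subcutaneously at 30 mg/kg at 1 and 4 h after infection. Birds were day-old chicks infected s.c. with 0.1 ml of avian Pasteurella multocida culture (twenty-hour tryptose broth, diluted 10^-4).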

[14] = tested on: Staphylococcus aureus S13E; test: MIC, standard agar-dilution assay, Staphylococcus aureus S13E; type: cell-based; conditions: Staphylococcus aureus, S13E
[15] = tested on: Staphylococcus aureus; test: MIC, broth-dilution microtiter test, Staphylococcus aureus; type: cell-based; conditions: broth-dilution microtiter, read-out: MIC
Description: as §1

[16] = tested on: Pasteurella hemolytica 22C; test: MIC, broth-dilution microtiter test, Pasteurella hemolytica 22C; type: cell-based; conditions: Pasteurella hemolytica 22C; broth-dilution microtiter; read-out: MIC
Description: as §1

[17] = tested on: Mycoplasma synoviae; test: MIC, broth-dilution microtiter test, Mycoplasma synoviae; type: cell-based; conditions: Mycoplasmopsis synoviae; Mycoplasma synoviae; broth-dilution microtiter; read-out: MIC
Description: as §1

[18] = tested on: Streptococcus bovis 80; test: MIC, broth-dilution microtiter test, Streptococcus bovis 80; type: cell-based; conditions: Streptococcus equinus; Streptococcus bovis 80; broth-dilution microtiter; read-out: MIC
Description: as §1

[19] = tested on: Pasteurella multocida 60A; test: MIC, broth-dilution microtiter test, Pasteurella multocida 60A; type: cell-based; conditions: Pasteurella multocida 60A; avian isolate; broth-dilution microtiter; read-out: MIC
Description: as §1

[20] = tested on: Mycoplasma gallisepticum; test: Antimycoplasmal activity in chicks infected with Mycoplasma gallisepticum; type: in vivo, two- to three-day-old chicks; conditions: gavage five times, equivalent to 0.5 g/gal; for Number with Antibodies/Number Tested: antibodies to M. gallisepticum; for Number with Antibodies/Number Tested / Number with Air-Sac Lesions/Number Treated: 21 days post-infection
Description: In these tests infections were induced in chicks by injecting 0.2 ml of a broth culture of M. gallisepticum into the abdominal air sac of two- to three-day-old chicks. The compounds were administered by gavage five times at a dose equivalent to 0.5 g/gal (on the day of challenge once prior to and once following the challenge, two times on the next day and once on the third day). Twenty-one days post-infection, the chicks were weighed, a blood sample was taken, and the chicks were sacrificed. The presence or absence of air-sac lesions was recorded.

[21] = tested on: Streptococcus pneumoniae Park I; test: microbe, parasite or virus in culture; type: cell-based
[22] = tested on: Streptococcus Group D X66; test: MIC, standard agar-dilution assay, Streptococcus Group D X66; type: cell-based
[23] = tested on: Staphylococcus epidermidis EPI2; test: MIC, standard agar-dilution assay, Staphylococcus epidermidis EPI2; type: cell-based; conditions: Staphylococcus epidermidis EPI2; agar dilution; read-out: MIC
[24] = tested on: Haemophilus influenzae R252; test: MIC, standard agar-dilution assay, Haemophilus influenzae R252; type: cell-based; conditions: Haemophilus influenzae, R252
[25] = tested on: Haemophilus influenzae Holt; test: MIC, standard agar-dilution assay, Haemophilus influenzae Holt; type: cell-based; conditions: Haemophilus influenzae
[26] = in vivo; conditions: dog, po, 15 mg/kg
[27] = C203, sc, subcutaneous, read-out: ED50, Subcutaneous
[28] = C203, oral, read-out: ED50, Oral

Row | SMILES | MIC [2] | Number of Deaths/Number Treated [3] | MIC [5] | MIC [7] | MIC [8] | ED50 [9, 27] | ED50 [9, 28] | MIC [10] | MIC [11] | MIC [12] | MIC [14] | MIC [15] | MIC [16] | MIC [17] | MIC [18] | MIC [19] | Number with Antibodies/Number Tested [20] | Mortality [20] | Number with Air-Sac Lesions/Number Treated [20] | also measured
1 | CCC1OC(=O)CC(O)C(C)C(OC2OC(C)C(O)C(N(C)C)C2O)C(CCSc2nnnn2C)CC(C)C(=O)C=CC(C)=CC1COC1OC(C)C(O)C(OC)C1OC (stereo not drawn) [Compound 24, 20-DH-DO-20-[(1-N-Methyltetrazol-5-yl)thio]desmycosin] | 0.5 µg/mL (≈ 0.573 µM) | 2/10 and 0/10 | 0.5 µg/mL (≈ 0.573 µM) | 1.56 µg/mL (≈ 1.79 µM) | 12.5 µg/mL (≈ 14.3 µM) | 2.4 mg/kg | 50 mg/kg | 1 µg/mL (≈ 1.15 µM) | 12.5 µg/mL (≈ 14.3 µM) | 50 µg/mL (≈ 57.3 µM) | 0.5 µg/mL (≈ 0.573 µM) | 0.78 µg/mL (≈ 0.894 µM) | 12.5 µg/mL (≈ 14.3 µM) | 0.78 µg/mL (≈ 0.894 µM) | 12.5 µg/mL (≈ 14.3 µM) | 12.5 µg/mL (≈ 14.3 µM) | 10/10 | 0/10 | 6/10 | MIC ([1]; Streptococcus pyogenes C203, agar dilution, read-out: MIC): 0.25 µg/mL (≈ 0.287 µM); MIC ([4]; Streptococcus Group 9960, agar dilution, read-out: MIC): 32 µg/mL (≈ 36.7 µM); MIC ([6]; Staphylococcus epidermidis EPI1, agar dilution, read-out: MIC): 0.25 µg/mL (≈ 0.287 µM); Number of Deaths/Number tested ([13]; 1.0 g/gal equivalent): 2/9; Number of Deaths/Number tested ([13]; 2.0 g/gal equivalent): 1/9; MIC ([21]; Streptococcus pneumoniae): 2 µg/mL (≈ 2.29 µM); MIC ([22]; Streptococcus Group D X66, agar dilution, read-out: MIC): 16 µg/mL (≈ 18.3 µM)
2 | CCC1OC(=O)CC(O)C(C)C(OC2OC(C)C(O)C(N(C)C)C2O)C(CCOC(=O)COc2ccccc2)CC(C)C(=O)C=CC(C)=CC1COC1OC(C)C(O)C(OC)C1OC (stereo not drawn) [Compound 26, 20-DH-20-O-(Phenoxyacetyl)desmycosin] | 0.25 µg/mL (≈ 0.275 µM) | 8/10 | 0.25 µg/mL (≈ 0.275 µM) | < 0.05 µg/mL | 6.25 µg/mL (≈ 6.88 µM) | 2.4 mg/kg | > 25 mg/kg | 0.5 µg/mL (≈ 0.551 µM) | 0.78 µg/mL (≈ 0.859 µM) | 50 µg/mL (≈ 55.1 µM) | 0.25 µg/mL (≈ 0.275 µM) | 0.39 µg/mL (≈ 0.429 µM) | 12.5 µg/mL (≈ 13.8 µM) | 1.56 µg/mL (≈ 1.72 µM) | 1.56 µg/mL (≈ 1.72 µM) | 6.25 µg/mL (≈ 6.88 µM) | 7/9 | 1/10 | 5/10 | MIC ([1]; Streptococcus pyogenes, C203): 0.12 µg/mL (≈ 0.132 µM); MIC [4]: 0.5 µg/mL (≈ 0.551 µM); MIC ([6]; Staphylococcus epidermidis, EPI1): 0.25 µg/mL (≈ 0.275 µM); MIC [23]: 0.12 µg/mL (≈ 0.132 µM); MIC [24]: 8 µg/mL (≈ 8.81 µM); MIC [25]: 8 µg/mL (≈ 8.81 µM); MIC ([21]; Streptococcus pneumoniae Park I, agar dilution, read-out: MIC): 0.12 µg/mL (≈ 0.132 µM); MIC [22]: 0.5 µg/mL (≈ 0.551 µM)
3 | CC[C@H]1OC(=O)[C@H](C)[C@@H](O[C@H]2C[C@@](C)(OC)[C@@H](O)[C@H](C)O2)[C@H](C)[C@@H](O[C@@H]2O[C@H](C)C[C@H](N(C)C)[C@H]2O)[C@](C)(O)C[C@@H](C)C(=O)[C@H](C)[C@@H](O)[C@]1(C)O [erythromycin] |  |  |  |  |  |  |  |  |  |  |  |  |  |  |  |  |  |  |  | Cmax [26]: 1600 ng/mL
